In ChEMBL document CHEMBL4396902, “Development of a Platform To Enable Efficient Permeability Evaluation of Novel Organo-Peptide Macrocycles” (ACS Med Chem Lett, 2019):

Assay: Apparent permeability in dog MDCK2 cells incubated for 3 hrs
Type: ADME, cell-based, Canis lupus familiaris
Settings: mdck-ii

Compound	Papp [×10⁻⁶ cm/s]
CC[C@H](C)[C@@H]1NC(=O)CCCNc2cccc(c2)CNC(=O)[C@@H]2CCCN2C(=O)[C@H](Cc2ccc(F)cc2)NC(=O)[C@H](CC2CCCCC2)NC1=O	2.9
CC[C@H](C)[C@@H]1NC(=O)CNc2cccc(c2)CCNC(=O)[C@@H]2CCCN2C(=O)[C@@H](Cc2ccccc2)NC(=O)[C@@H](CC(C)C)NC1=O	7.6
CC[C@H](C)[C@@H]1NC(=O)CNc2cccc(c2)CNC(=O)[C@@H]2CCCN2C(=O)[C@H](Cc2ccc(F)cc2)NC(=O)[C@H](CC2CCCCC2)NC1=O	3.9
CC[C@H](C)[C@@H]1NC(=O)CNc2cccc(c2)CCNC(=O)[C@@H]2CCCN2C(=O)[C@H](Cc2ccc(F)cc2)NC(=O)[C@@H](CC(C)C)NC1=O	5.7
CC(C)C[C@H]1NC(=O)[C@@H](C(C)C)NC(=O)CNc2cccc(c2)CCNC(=O)[C@@H]2CCCN2C(=O)[C@H](Cc2ccc(F)cc2)NC1=O	4

Further lines, results first:

Papp [×10⁻⁶ cm/s]	Compound
12.9	CC[C@H](C)[C@@H]1NC(=O)CNc2ccccc2CCNC(=O)[C@@H]2CCCN2C(=O)[C@H](Cc2ccc(F)cc2)NC(=O)[C@@H](CC(C)C)NC1=O
14.5	CC[C@H](C)[C@@H]1NC(=O)CNc2ccccc2CCNC(=O)[C@@H]2CCCN2C(=O)[C@@H](Cc2ccccc2)NC(=O)[C@@H](CC(C)C)NC1=O
5.5	CC(C)C[C@H]1NC(=O)[C@@H](C(C)C)NC(=O)CNc2ccccc2CCNC(=O)[C@@H]2CCCN2C(=O)[C@H](Cc2ccc(F)cc2)NC1=O
